Structures can show the parent of a compound that is named as a salt.
What was measured:
KKAy mice [1] = details: type II diabetes model, reported in the literature; cited from earlier work
KKAy mice [2] = experiment: oral glucose tolerance test in KKAy mice after 21 days of oral administration; assay type: in vivo; details: male KKAy mice; oral once a day for 21 days; pitavastatin 10 mg/kg, pravastatin 50 mg/kg, enalapril maleate 1 mg/kg; glucose 2 g/kg oral after 18 h fasting; compared with control group (combination also vs single administration groups, P<0.05)
Protocol: Male KKAy mice (age: 10 weeks, Nippon Cler Co., Ltd.) were provided. Throughout the duration of the experiment, the mice were housed in a cage with a controlled light/dark cycle (duration of light period with a room light: 7:00 a.m. to 7:00 p.m.) at a temperature of 23±3° C. and a humidity of 55±15% and were allowed to freely take a solid chow (CE-2; Nippon Cler Co., Ltd.) and tap water. Pitavastatin and/or enalapril maleate were suspended in a 0.5-mass % aqueous solution of carboxymethyl cellulose (Iwai Kagaku Co., Ltd.) so that the pitavastatin content and the enalapril maleate content were adjusted to 1 mg/mL and 0.1 mg/mL, respectively. Since pitavastatin has a water content of 9.43%, pitavastatin was weighed in an amount of 1.1 times by mass the target dose for compensation. The suspension was refrigerated (4° C.) in a light-tight bottle. The suspensions were prepared every 7 days. Twenty four KKAy mice were randomly divided into the following four groups (six mice per group): a control group, a pitavastatin alone (10 mg/kg) group, an enalapril maleate alone (1 mg/kg) group, and a pitavastatin (10 mg/kg) and enalapril maleate (1 mg/kg) combined use group. Each of pitavastatin and enalapril maleate was orally administered once a day at a dose of 10 mL/kg for 21 days, and a 0.5 mass % aqueous sodium carboxymethyl cellulose solution (10 mL/kg) was orally administered to the control group. […] Immediately after collection, blood glucose level was determined by means of a […] reader (GR-101, product of Terumo Co., Ltd.). After determination of the initial blood glucose level, an aqueous glucose solution was orally administered to each mouse (2 g/10 mL/kg), and blood glucose level was determined in a similar manner at 15, 30, 60, and 120 minutes after administration of glucose. In each group, AUC of blood glucose level was calculated. The differences between the control group and the drug-administered groups were analyzed on the basis of Dunnett's multiple comparison test, preceded by Bartlett's analysis of variance. […]

Row | Structure (SMILES) | effect on impaired glucose tolerance / insulin resistance (KKAy mice [1]) | AUC of blood glucose level (to glucose tolerance hour 2) (KKAy mice [2])
1 | CCOC(=O)[C@H](CCc1ccccc1)N[C@H]1CS[C@H](c2cccs2)CN(CC(=O)O)C1=O [temocapril] | reduction of insulin resistance | 
2 | CC[C@H](C)C(=O)O[C@H]1C[C@H](O)C=C2C=C[C@H](C)[C@H](CC[C@@H](O)C[C@@H](O)CC(=O)O)[C@H]21 [pravastatin, pravastatin sodium] | effect of reversing impaired glucose tolerance | tended to be reduced
3 | CCOC(=O)[C@H](CCc1ccccc1)N[C@@H](C)C(=O)N1CCC[C@H]1C(=O)O [enalapril maleate] |  | tended to be reduced
4 | O=C([O-])C[C@H](O)C[C@H](O)/C=C/c1c(C2CC2)nc2ccccc2c1-c1ccc(F)cc1.O=C([O-])C[C@H](O)C[C@H](O)/C=C/c1c(C2CC2)nc2ccccc2c1-c1ccc(F)cc1.[Ca+2] [pitavastatin, pitavastatin calcium] | effect of improving impaired glucose tolerance | tended to be reduced

Source: patent publication US8685952B2, “Method for the treatment of diabetes” (KOWA Co., Ltd., priority 2006, dated 2014)
